Patent US9334475B2, “Method for inducing erythropoietin-producing cell” (Kyoto University, priority 2012, dated 2016)

How the values were obtained:
[1] = tested on: EPO-producing cells induced to differentiate from human iPS cells; assay: ELISA of extracellular EPO secretion by EPO-producing cells at various IGF-1 concentrations; format: cell-based
Description: (§1) Human iPS cells (201B6, 201B7, and 253G4) were obtained from Professor Yamanaka of Kyoto University, and cultured in accordance with a conventional method (Takahashi K, et al. Cell. 131: pp. 861 to 872). Using SNL cells (McMahon, A. P. and Bradley, A. (1990) Cell 62; pp. 1073 to 1085) as feeder cells, the iPS cells were cultured to 80 to 90% confluency on a 6 cm dish. The cells were then detached by adding a CTK solution and the feeder cells were removed, and 1 mL of Accutase™ was added to dissociate the iPS cells into single cells.
(§2) Subsequently, the iPS cells were suspended in an RPMI medium containing 10 μM Y-27632, 2% B27, and penicillin/streptomycin and then seeded in a Matrigel-coated 24-well plate at 250,000 cells/well. After adding 100 ng/mL Activin and 1 μM CHIR99021, the volume of medium was adjusted to 0.5 mL/well, and the cells were cultured for six days (Step 1). At this time, on Day 2, 0.5 mM NaB was added to the medium (without medium exchange), and on Day 3, the medium was exchanged for a medium containing 100 ng/mL A ctivin, 1 μM CHIR99021, and 0.5 mM NaB, and on Day 5, the medium was exchanged for a medium containing 100 ng/mL Activin and 1 μM CHIR99021.
After six days of culture, the medium was replaced by a DMEM medium containing 1% DMSO, 50 ng/mL IGF-1, 20% KSR, 2 mM L-glutamine, nonessential amino acid (NEAA), 100 μM β-ME (2-mercaptoethanol), 50 mU/L penicillin, and 50 μg/L streptomycin, and the cells were cultured for a certain period of days (Step 2). During cell culture, the medium was exchanged every other day.
Subsequently, ELISA was performed to study whether the EPO protein expressed was secreted out of the cells. As a result, EPO protein was confirmed outside the cells. […] Further, as a result of studying the amount of IGF-1 added and the number of days of culture, the highest amount of EPO secretion was observed when the cells were cultured for 10 days at 50 ng/mL (FIG. 6). […]

[2] = tested on: EPO-producing cells induced to differentiate from human iPS cells; assay: EPO production-promoting ability in Step 2 of differentiation of human iPS cells; format: cell-based; conditions: Step 2, compared with IGF-2 (FIG. 4)
Description: as §1
as §2, with “CHIR99021. […]” for “CHIR99021.”
In Step 2, the cells were analyzed after 18 days of culture. […]

With “IGF-1: IGF family gene product used as a growth factor in the Step 2 medium” the “days of culture in Step 2 giving the highest amount of EPO secretion” value ([1]; IGF-1 at 50 ng/mL (FIG. 6)) was 10 days, the “change in EPO secretion over time” value ([1]; IGF-1 at 100 ng/mL, Step 2 (FIG. 6)) was “an increasing trend of EPO secretion was confirmed up to Day 12” and the “concentration of IGF-1 added that increased the amount of extracellular secretion of EPO” value ([1]; Step 2, ELISA, Day 8 cells (FIG. 5)) was ≥ 1 ng/mL. The EPO production-promoting ability [2] was “promote EPO production more potently than IGF-2”.
